Data reported in PMC9603946, “On the Sensitivity of the Virion Envelope to Lipid Peroxidation” (Microbiology Spectrum, 2022).
Marks after values point to notes of the source that are not given here.

Tests used:
[1] = system: HSV-1 virions; test: HSV-1 virion lipid peroxidation probed with C11-Bodipy; parameters: species or system HSV-1 KOS; settings: Human alphaherpesvirus 1, Bodipy probe
Procedure: (§1) The effects of peroxidators have been commonly evaluated against purified lipids and liposomes as a proxy, but they have not been evaluated against virions ([50], [53][–][55]). We instead directly evaluated the extent of virion lipid peroxidation.
To evaluate virion lipoperoxidation with C11-Bodipy, 50 μL DMEM containing 5 × 10^6 PFU of HSV-1 was added into each well of 96-well plates. Virions were then preloaded with 0.1 mol % of C11-Bodipy for 30 min at 37°C. […] Fluorescence was evaluated in a TECAN Infinite M200 Pro at 550 nm excitation and 580 to 630 nm emission with the reading peak at 600 nm.
(§2) To evaluate the effects of a lipid soluble antioxidant, cells or virions were preloaded with vitamin E-BSA for 3 h at 37°C. Vitamin E-BSA containing medium was removed, and the cells were washed twice with DMEM. Liperfluo (20 or 10 μM for cells or virions, respectively) or C11-Bodipy (1 μM for cells or 0.1 mol% for virions) were preloaded into the cells or virions for 30 min at 37°C.
(§3) To evaluate the effects of water soluble antioxidants, liperfluo (20 μM for cells or 10 μM for virions) or C11-Bodipy (1 μM for cells or 0.1 mol% for virions) were preloaded into the cells or virions for 30 min at 37°C. […] Fluorescence was evaluated in a TECAN Infinite M200 Pro at 515 nm excitation and 545 nm emission for liperfluo or at 550 nm excitation and 580 to 630 nm emission for C11-Bodipy.

[2] = system: HSV-1 virions; test: microbe, parasite or virus in culture; parameters: species or system HSV-1 KOS
Procedure: as §1
To evaluate virion peroxidation using liperfluo, 50 μL DMEM that contained 5 × 10^6 PFU of HSV-1 was added to 96-well plates. Virions were then preloaded with 10 μM liperfluo for 20 min at 37°C. […] Fluorescence was evaluated in a TECAN Infinite M200 Pro at 515 nm excitation and 545 nm emission. Medium containing no virus was used as blank.
as §2, §3

[3] = HFF cell viability after 2 h exposure to lipoperoxidators (CellTiter-Glo); settings: human, CC50, HFF
Procedure: (§4) The cells were washed twice with warm DMEM before a 100 μL lipoperoxidator solution was transferred with a multichannel pipette from the plate containing the drug dilutions in technical triplicates. The cells were incubated with peroxidators for 2 h at 37°C. Then, the medium was removed, and the cells were washed twice with DMEM at 37°C. The plates were cooled down to RT, and the medium was removed. Then, 50 μL phenol red free DMEM and 50 μL CellTiter-glo Luminiscent Cell Viability Assay (Promega, G7571/2/3) were added and mixed in an orbital shaker for 2 min. Afterwards, 80 μL of the mix was transferred onto white 96-well plates and incubated for 10 min at RT for signal stabilization. The luminescence was read in the Glomax Multidetection System (Promega) with an integration time of 0.5 s.
(§5) The means of the technical triplicates were normalized to the means of the vehicle controls, analyzed via nonlinear regression dose responses, and graphed using GraphPad Prism 9.0. Three or four independent biological replicates were performed for each treatment (n = 3 or 4).
(§6) To evaluate the effects of lipid soluble antioxidants, 10 μM vitamin E was loaded onto carrier 1% BSA in the dark for 4.5 h at RT. The cells were washed twice with DMEM at 37°C and preloaded with 100 μL of 10 μM vitamin E in BSA carrier for 3 h at 37°C. The cells were washed twice again before the addition of any lipoperoxidators. Peroxidators were then added to the cells at working concentrations and incubated for 2 h at 37°C. The peroxidation solution was then removed, and the cells were washed twice with DMEM before analyzing viability. To evaluate the effects of a water soluble antioxidant, the cells were treated with 10 μM vitamin C (final concentration) simultaneously with the lipoperoxidators.

[4] = system: HFF cells; test: as above; settings: HFF
Procedure: as §4, §5, §6

[5] = system: HSV-1; test: HSV-1 virion infectivity (plaquing efficiency) on Vero cells after virion pretreatment; settings: Vero; for EC50: Human alphaherpesvirus 1, Vero
Procedure: (§7) The inocula were removed, and the cells were washed and then incubated at 37°C in 5% CO2 until plaques were visible and well-resolved (about 2 days), at which time they were fixed and stained with crystal violet.
(§8) HSV-1 suspensions of 20,000 plaque PFU in 250 μL DMEM were mixed 1:1 with 2-fold serial dilutions of the general peroxidators and were incubated in a water bath for 2 h at 37°C. Next, treated virions were diluted 1:100 before being adsorbed onto cells for 1 h at 37°C. The inocula were removed, and the cells were washed twice with cold DMEM. Infected cells were overlaid with DMEM supplemented with 2% (Vero) or 1% (HFF) methylcellulose and 5% FBS and were incubated at 37°C until plaques were visible and well-resolved, typically in about 2 days. Cell monolayers were fixed and stained with 1% crystal violet in 17% methanol for 18 h at RT. The cells were washed, and the plaques were counted and normalized to those produced by the vehicle treated virions.
(§9) To test the effects of lipid soluble antioxidants on virions, 10 μM vitamin E loaded onto 1% carrier BSA in the dark for 4.5 h at RT was incubated with 10^6 HSV-1 virions for 3 h at 37°C. […] The treated virions were diluted 1:100 before infecting cells. […] The mix was incubated for 2 h at 37°C, diluted 1:100, and used to infect cells. The infectivity of an aliquot of treated virions was tested via a plaque assay.

[6] = system: Vero cells; test: Vero cell viability after 2 h exposure to lipoperoxidators (CellTiter-Glo); settings: Vero
Procedure: as §4, §5, §6

[7] = as above; settings: African green monkey, CC50, Vero
Procedure: as §4, §5, §6

[8] = system: HSV-1; test: HSV-1 virion infectivity (plaquing efficiency) on HFF cells after virion pretreatment; settings: for EC50: Human alphaherpesvirus 1, HFF
Procedure: as §7, §8, §9

[9] = preloaded with vitamin E (10 μM, BSA carrier)
[10] = 2 h, no antioxidant, virions treated 2 h at 37°C
[11] = virions preloaded with vitamin E (10 μM, BSA carrier)

CC(C)CC(C)(C#N)N=NC(C)(C#N)CC(C)C (stereo not shown) [AMVN, 2,2′-azobis(2,4-dimethylvaleronitrile)] gave an EC50 ([1]; no antioxidant, read-out: VP50 (concentration of peroxidant that results in 50% peroxidation in virion lipids)) of 2700 µM, an EC50 ([1]; vitamin C, read-out: VP50 (the source's name)) of 2000 µM and an EC50 ([1]; vitamin E, read-out: VP50 (the source's name)) of 2400 µM. For the same molecule, the EC50 ([2]; Human alphaherpesvirus 1, read-out: VP50, Liperfluo probe, no antioxidant) was 1200 µM, the EC50 ([2]; Human alphaherpesvirus 1, read-out: VP50, Liperfluo probe, vitamin C) was 1200 µM and the EC50 ([2]; Human alphaherpesvirus 1, read-out: VP50, Liperfluo probe, vitamin E) was 900 µM. It also gave a CC50 at 2 h ([3]; no antioxidant, 2 h at 37°C) of 4800 µM, a CC50 at 2 h [3, 9] of 4900 µM and a CC50 at 2 h ([3]; with vitamin C (10 μM)) of 4400 µM. The “concentration from which HFF viability was affected” value [4] was 2000 µM, the “PI, CC50 (antioxidant)/CC50” value ([4]; vitamin C) was 0.9 and the “PI, CC50 (antioxidant)/CC50” value ([4]; vitamin E) was 1.0. For the same molecule, the EC50 [5, 10] was 800 µM, the EC50 [5, 11] was 3800 µM and the EC50 ([5]; with vitamin C (10 μM)) was 2600 µM. For the same molecule, the “concentration of maximal inhibition of virion infectivity” value [5] was 5 mM, the “concentration giving a loss of infectivity of about 30%” value ([5]; 2 h at 37°C) was 0.3 mM and the “SI, CC50/EC50” value ([5]; vitamin C) was 1.3. For the same molecule, the “SI, CC50/EC50” value ([5]; vitamin E) was 1.2, the “lowest concentration that decreased virion infectivity in the presence of BSA” value ([5]; with BSA) was 2.5 mM and the “lowest effective concentration on infectivity in the presence of the antioxidants” value ([5]; with antioxidants) was 1.5 mM. For the same molecule, the “concentration of maximal inhibition of cell viability” value [6] was 10000 µM, the “PI, CC50 (antioxidant)/CC50” value ([6]; vitamin C) was 0.8 and the “PI, CC50 (antioxidant)/CC50” value ([6]; vitamin E) was 1.2^d. For the same molecule, the CC50 at 2 h ([7]; no antioxidant, 2 h at 37°C) was 4000 µM, the CC50 at 2 h [7, 9] was 4600 µM and the CC50 at 2 h ([7]; with vitamin C (10 μM)) was 3300 µM. For the same molecule, the “concentration from which virion infectivity was affected” value [8] was 0.7 mM, the “concentration giving a loss of infectivity of about 30%” value ([8]; 2 h at 37°C) was 0.7 mM and the EC50 [8, 10] was 1100 µM. The EC50 [8, 11] was 2700 µM, the EC50 ([8]; with vitamin C (10 μM)) was 1400 µM and the “SI, CC50/EC50” value ([8]; vitamin C) was 3.1. The “SI, CC50/EC50” value ([8]; vitamin E) was 1.8.
